Data reported in patent US6355799B1, “Substituted benzene compounds, process for their preparation, and herbicidal and defoliant compositions containing them” (ISK Americas Incorporated, priority 1997, dated 2002).

What was measured:
Assay type in all cases: in vivo
[1] = system: field corn (Zea mays L., var. Dekalb 535, CORN); assay: Post-emerge test, crop safety; conditions: post-emerge, 14 days after application, rating scale 0-100
In short: (§1)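 Compounds in acetone were track-sprayed at 15-1000 g ai/ha (187 l/ha) on sandy loam pots: pre-emerge one day after seeding, post-emerge at 2-3 leaf stage with 0.25% v/v non-ionic surfactant. Phytotoxicity was rated 14 days later on a 0 (no damage) to 100 (complete death) scale.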

[2] = system: upland rice (Oryza sp., var. Tebonnet, RICE); assay: Post-emerge test, crop safety; conditions: post-emerge, 14 days after application, rating scale 0-100
In short: as §1

[3] = system: lambsquarters (Chenopodium album, CHEAL); assay: Post-emerge test, greenhouse herbicide activity screening; conditions: post-emerge, 14 days after application, rating scale 0-100
In short: (§2)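 Rating: 0–100 visual injury, 14 DAA. Application: acetone, 187 l/ha, 15–1000 g ai/ha, flat-fan track sprayer with nozzle 40–45 cm above soil or canopy. Post-emerge runs used 0.25% v/v surfactant on 2–3 leaf plants.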

[4] = system: large crabgrass (Digitaria sanguinalis, DIGSA); assay: as above; conditions: post-emerge, 14 days after application, rating scale 0-100
In short: as §2

[5] = system: barnyardgrass (Echinochloa crus-galli, ECHCG); assay: as above; conditions: post-emerge, 14 days after application, rating scale 0-100
In short: as §2

[6] = system: green foxtail (Setaria viridis, SETVI); assay: as above; conditions: post-emerge, 14 days after application, rating scale 0-100
In short: as §2

[7] = system: johnsongrass (Sorghum halepense, SORHA); assay: as above; conditions: post-emerge, 14 days after application, rating scale 0-100
In short: as §2

[8] = system: ivyleaf morningglory (Ipomoea hederacea, IPOHE); assay: as above; conditions: post-emerge, 14 days after application, rating scale 0-100
In short: as §2

[9] = system: redroot pigweed (Amaranthus retroflexus, AMARE); assay: as above; conditions: post-emerge, 14 days after application, rating scale 0-100
In short: as §2

[10] = system: velvetleaf (Abutilon theophrasti, ABUTH); assay: as above; conditions: post-emerge, 14 days after application, rating scale 0-100
In short: as §2

[11] = system: sicklepod (Cassia obtusifolia, CASOB); assay: as above; conditions: post-emerge, 14 days after application, rating scale 0-100
In short: as §2

[12] = system: redroot pigweed (Amaranthus retroflexus, AMARE); assay: Pre-emerge test, greenhouse herbicide activity screening; conditions: pre-emerge, 14 days after application, scale 0-100
In short: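 Herbicidal damage is scored 0 (none) to 100 (complete plant death) two weeks after a simulated field spray. Rates span 15–1000 g ai/ha, delivered in acetone at 187 l/ha. For post-emergence treatments, plants have 2–3 leaves and the spray carries 0.25% v/v non-ionic surfactant.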

[13] = system: lambsquarters (Chenopodium album, CHEAL); assay: as above; conditions: pre-emerge, 14 days after application, scale 0-100
In short: as §1

[14] = system: large crabgrass (Digitaria sanguinalis, DIGSA); assay: as above; conditions: pre-emerge, 14 days after application, scale 0-100
In short: as §1

[15] = system: barnyardgrass (Echinochloa crus-galli, ECHCG); assay: as above; conditions: pre-emerge, 14 days after application, scale 0-100
In short: as §1

[16] = system: green foxtail (Setaria viridis, SETVI); assay: as above; conditions: pre-emerge, 14 days after application, scale 0-100
In short: as §1

[17] = system: johnsongrass (Sorghum halepense, SORHA); assay: as above; conditions: pre-emerge, 14 days after application, scale 0-100
In short: as §1

[18] = system: ivyleaf morningglory (Ipomoea hederacea, IPOHE); assay: as above; conditions: pre-emerge, 14 days after application, scale 0-100
In short: as §1

[19] = system: velvetleaf (Abutilon theophrasti, ABUTH); assay: as above; conditions: pre-emerge, 14 days after application, scale 0-100
In short: as §1

[20] = system: sicklepod (Cassia obtusifolia, CASOB); assay: as above; conditions: pre-emerge, 14 days after application, scale 0-100
In short: as §1

[21] = system: field corn (Zea mays L., var. Dekalb 535, CORN); assay: Pre-emerge test, crop safety; conditions: pre-emerge, 14 days after application, scale 0-100
In short: (§3)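 Fourteen days after spraying, crop and weed injury was graded visually from 0, no effect, to 100, every plant dead. Test substances were dissolved in acetone and applied at 15–1000 g ai/ha with a flat-fan nozzle. Application was either pre-emergence, one day after sowing, or post-emergence at the 2–3 leaf stage.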

[22] = system: upland rice (Oryza sp., var. Tebonnet, RICE); assay: Pre-emerge test, crop safety; conditions: pre-emerge, 14 days after application, scale 0-100
In short: as §3

## COc1c(Br)cc(F)c(-n2c(=O)cc(C(F)(F)F)n(C)c2=O)c1NC(=O)C=Cc1ccccc1 [2-175]
[1]; 63 g ai/ha
  CORN phytotoxicity rating (crop damage): 10
[1]; 250 g ai/ha
  CORN phytotoxicity rating (crop damage): 10
[2]; 63 g ai/ha
  RICE phytotoxicity rating (crop damage): 50
[2]; 250 g ai/ha
  RICE phytotoxicity rating (crop damage): 80
[3]; 63 g ai/ha
  CHEAL phytotoxicity rating: 100
[3]; 250 g ai/ha
  CHEAL phytotoxicity rating: 100
[4]; 63 g ai/ha
  DIGSA phytotoxicity rating: 0
[4]; 250 g ai/ha
  DIGSA phytotoxicity rating: 10
[5]; 63 g ai/ha
  ECHCG phytotoxicity rating: 0
[5]; 250 g ai/ha
  ECHCG phytotoxicity rating: 20
[6]; 63 g ai/ha
  SETVI phytotoxicity rating: 0
[6]; 250 g ai/ha
  SETVI phytotoxicity rating: 20
[7]; 63 g ai/ha
  SORHA phytotoxicity rating: 0
[7]; 250 g ai/ha
  SORHA phytotoxicity rating: 10
[8]; 63 g ai/ha
  IPOHE phytotoxicity rating: 100
[8]; 250 g ai/ha
  IPOHE phytotoxicity rating: 100
[9]; 63 g ai/ha
  AMARE phytotoxicity rating: 100
[9]; 250 g ai/ha
  AMARE phytotoxicity rating: 100
[10]; 63 g ai/ha
  ABUTH phytotoxicity rating: 100
[10]; 250 g ai/ha
  ABUTH phytotoxicity rating: 100
[11]; 63 g ai/ha
  CASOB phytotoxicity rating: 100
[11]; 250 g ai/ha
  CASOB phytotoxicity rating: 100
[12]; 63 g ai/ha
  phytotoxicity rating AMARE: 100
[12]; 250 g ai/ha
  phytotoxicity rating AMARE: 100
[13]; 63 g ai/ha
  phytotoxicity rating CHEAL: 100
[13]; 250 g ai/ha
  phytotoxicity rating CHEAL: 100
[14]; 63 g ai/ha
  phytotoxicity rating DIGSA: 0
[14]; 250 g ai/ha
  phytotoxicity rating DIGSA: 60
[15]; 63 g ai/ha
  phytotoxicity rating ECHCG: 0
[15]; 250 g ai/ha
  phytotoxicity rating ECHCG: 40
[16]; 63 g ai/ha
  phytotoxicity rating SETVI: 0
[16]; 250 g ai/ha
  phytotoxicity rating SETVI: 60
[17]; 63 g ai/ha
  phytotoxicity rating SORHA: 0
[17]; 250 g ai/ha
  phytotoxicity rating SORHA: 30
[18]; 63 g ai/ha
  phytotoxicity rating IPOHE: 70
[18]; 250 g ai/ha
  phytotoxicity rating IPOHE: 50
[19]; 63 g ai/ha
  phytotoxicity rating ABUTH: 100
[19]; 250 g ai/ha
  phytotoxicity rating ABUTH: 100
[20]; 63 g ai/ha
  phytotoxicity rating CASOB: 30
[20]; 250 g ai/ha
  phytotoxicity rating CASOB: 30
[21]; 63 g ai/ha
  phytotoxicity rating CORN (crop damage): 0
[21]; 250 g ai/ha
  phytotoxicity rating CORN (crop damage): 0
[22]; 63 g ai/ha
  phytotoxicity rating RICE (crop damage): 20
[22]; 250 g ai/ha
  phytotoxicity rating RICE (crop damage): 40

## COc1cc2ccccc2cc1C(=O)Nc1c(OC)c(Cl)cc(F)c1-n1c(=O)cc(C(F)(F)F)n(C)c1=O [2-152]
[1]; 63 g ai/ha
  CORN phytotoxicity rating (crop damage): 15
[1]; 250 g ai/ha
  CORN phytotoxicity rating (crop damage): 30
[2]; 63 g ai/ha
  RICE phytotoxicity rating (crop damage): 40
[2]; 250 g ai/ha
  RICE phytotoxicity rating (crop damage): 65
[3]; 63 g ai/ha
  CHEAL phytotoxicity rating: 98
[3]; 250 g ai/ha
  CHEAL phytotoxicity rating: 100
[4]; 63 g ai/ha
  DIGSA phytotoxicity rating: 20
[4]; 250 g ai/ha
  DIGSA phytotoxicity rating: 30
[5]; 63 g ai/ha
  ECHCG phytotoxicity rating: 30
[5]; 250 g ai/ha
  ECHCG phytotoxicity rating: 50
[6]; 63 g ai/ha
  SETVI phytotoxicity rating: 30
[6]; 250 g ai/ha
  SETVI phytotoxicity rating: 50
[7]; 63 g ai/ha
  SORHA phytotoxicity rating: 20
[7]; 250 g ai/ha
  SORHA phytotoxicity rating: 40
[8]; 63 g ai/ha
  IPOHE phytotoxicity rating: 100
[8]; 250 g ai/ha
  IPOHE phytotoxicity rating: 100
[9]; 63 g ai/ha
  AMARE phytotoxicity rating: 100
[9]; 250 g ai/ha
  AMARE phytotoxicity rating: 100
[10]; 63 g ai/ha
  ABUTH phytotoxicity rating: 100
[10]; 250 g ai/ha
  ABUTH phytotoxicity rating: 100
[11]; 63 g ai/ha
  CASOB phytotoxicity rating: 100
[11]; 250 g ai/ha
  CASOB phytotoxicity rating: 100
[12]; 63 g ai/ha
  phytotoxicity rating AMARE: 100
[12]; 250 g ai/ha
  phytotoxicity rating AMARE: 100
[13]; 63 g ai/ha
  phytotoxicity rating CHEAL: 95
[13]; 250 g ai/ha
  phytotoxicity rating CHEAL: 100
[14]; 63 g ai/ha
  phytotoxicity rating DIGSA: 50
[14]; 250 g ai/ha
  phytotoxicity rating DIGSA: 80
[15]; 63 g ai/ha
  phytotoxicity rating ECHCG: 10
[15]; 250 g ai/ha
  phytotoxicity rating ECHCG: 70
[16]; 63 g ai/ha
  phytotoxicity rating SETVI: 30
[16]; 250 g ai/ha
  phytotoxicity rating SETVI: 70
[17]; 63 g ai/ha
  phytotoxicity rating SORHA: 0
[17]; 250 g ai/ha
  phytotoxicity rating SORHA: 30
[18]; 63 g ai/ha
  phytotoxicity rating IPOHE: 0
[18]; 250 g ai/ha
  phytotoxicity rating IPOHE: 0
[19]; 63 g ai/ha
  phytotoxicity rating ABUTH: 60
[19]; 250 g ai/ha
  phytotoxicity rating ABUTH: 90
[20]; 63 g ai/ha
  phytotoxicity rating CASOB: 0
[20]; 250 g ai/ha
  phytotoxicity rating CASOB: 50
[21]; 63 g ai/ha
  phytotoxicity rating CORN (crop damage): 0
[21]; 250 g ai/ha
  phytotoxicity rating CORN (crop damage): 0
[22]; 63 g ai/ha
  phytotoxicity rating RICE (crop damage): 0
[22]; 250 g ai/ha
  phytotoxicity rating RICE (crop damage): 30
